Laboratory results as given in PubChem BioAssay (NCI).
Where “and” joins values, the source holds several entries; their conditions need not be identical. Equal entries are not always repeated.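 Assay format: 96-well plates, 48-hour exposure. GI50 marks 50% less growth. Definition used: TGI = concentration required for complete inhibition of growth.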

Columns and labels:
Experiment in all cases: NCI-60 cell line screen, 48 h
SK-MEL-2 melanoma = test system: SK-MEL-2 melanoma
HOP-92 NSCLC = test system: HOP-92 NSCLC
OVCAR-8 ovarian = test system: OVCAR-8 ovarian
EKVX NSCLC = test system: EKVX NSCLC
SK-MEL-28 melanoma = test system: SK-MEL-28 melanoma
LOX IMVI melanoma = test system: LOX IMVI melanoma
OVCAR-4 ovarian = test system: OVCAR-4 ovarian
SF-539 CNS = test system: SF-539 CNS
OVCAR-3 ovarian = test system: OVCAR-3 ovarian
HL-60(TB) leukemia = test system: HL-60(TB) leukemia

| Compound | TGI (SK-MEL-2 melanoma) [nM] | TGI (HOP-92 NSCLC) [nM] | TGI (OVCAR-8 ovarian) [nM] | TGI (EKVX NSCLC) [nM] | TGI (SK-MEL-28 melanoma) [nM] | TGI (LOX IMVI melanoma) [nM] | TGI (OVCAR-4 ovarian) [nM] | TGI (SF-539 CNS) | TGI (OVCAR-3 ovarian) | GI50 (SK-MEL-2 melanoma) [nM] | GI50 (HOP-92 NSCLC) | GI50 (OVCAR-8 ovarian) | GI50 (EKVX NSCLC) [nM] | GI50 (SK-MEL-28 melanoma) | GI50 (HL-60(TB) leukemia) | TGI (HL-60(TB) leukemia) | GI50 (OVCAR-4 ovarian) [nM] | GI50 (SF-539 CNS) | GI50 (OVCAR-3 ovarian) | GI50 (LOX IMVI melanoma) |
| --- | --- | --- | --- | --- | --- | --- | --- | --- | --- | --- | --- | --- | --- | --- | --- | --- | --- | --- | --- | --- |
| CN(C)CC1CCCCCCCCCCCCC(CN(C)C)C1=O (centres undefined) | 26000 | 26300 | 22400 | 37300 | 26600 | 21300 | 29400 | 28700 nM | 30700 nM |  |  |  |  |  |  |  |  |  |  |  |
| Cn1c(=O)c2[nH]c(CCCc3ccc([N+](=O)[O-])cc3)nc2n(C)c1=O | > 100000 | > 100000 | > 100000 | > 100000 | > 100000 | > 100000 | > 100000 | > 100000 nM | > 100000 nM |  |  |  |  |  |  |  |  |  |  |  |
| COc1cc(/C=C/C(=O)c2c(C)nc3ccccc3c2C)ccc1OCCCCOc1cc2c(cc1OC)C(=O)N1CCC[C@H]1C=N2 | 978 | 632 | 703 | 3560 | 647 |  | 4620 | 1540 nM | 631 nM | 414 | 190 nM | 245 nM | 1740 | 214 nM | 196 nM | 514 nM | 470 | 550 nM | 217 nM |  |
| O=C1NC(=O)C(c2ccccc2)=C1Nc1ccccc1 | > 25000 |  | > 25000 | > 25000 | > 25000 | > 25000 | > 25000 | > 25000 nM | > 25000 nM | > 25000 |  | > 25000 nM | > 25000 | > 25000 nM | > 25000 nM | > 25000 nM | > 25000 | > 25000 nM | > 25000 nM | > 25000 nM |
| O=C1/C(=C\c2ccccc2)CN(C(=O)c2ccccc2)C/C1=C\c1ccccc1 | 8960 | 21000 | 11100 |  | 3470 | 2890 | 11400 | 6240 nM | 6340 nM | 3500 | 3280 nM | 2960 nM |  | 1820 nM | 4290 nM | 52700 nM | 2980 | 2270 nM | 2690 nM | 1380 nM |
| COC(=O)[C@@H](C)C[C@H](Cc1ccccc1)NC(=O)c1csc([C@@H](C[C@H](C(C)C)N(C)C(=O)C2(NC(=O)[C@H]3CCCCN3C)CCC2)OC(C)=O)n1 |  |  | > 25000 | > 25000 | > 25000 | > 25000 | > 25000 | 51.8 nM and 13.7 nM | 10.1 nM and 6.72 nM |  | 0.886 nM and 2.5 nM | 16.8 nM and 6.26 nM |  | 30.7 nM and 6.67 nM | 1.16 nM and < 2.5 nM | 5.69 nM and < 2.5 nM |  | 7.84 nM and 4.41 nM | 0.487 nM and 2.5 nM | 7.71 nM and 2.5 nM |
| Brc1ccc(Nc2nc3ccccc3nc2Nc2ccc(Br)cc2)cc1 | 5480 | 5500 | 10800 |  | 6870 | 3310 | 8980 | 3560 nM | 1540 nM | 2260 | 2190 nM | 773 nM |  | 2180 nM | 2090 nM | 5960 nM | 1250 | 1510 nM | 401 nM | 1720 nM |
| C=CCC12CCC(=O)[C@@]1(C)CC=C(O)C2=O (some centres undefined) |  | > 100000 | > 100000 | > 100000 | > 100000 | > 100000 | > 100000 | > 100000 nM | > 100000 nM |  |  |  |  |  |  | > 100000 nM |  |  |  |  |
